Measurements published in patent publication US10323045B2, “Thienopyrimidine derivatives as NIK inhibitors” (Janssen Pharmaceutica NV, priority 2014, dated 2019).

How the values were obtained:
[1] = target: Recombinant Human NF-kappaB-inducing Kinase (NIK/MAP3K14) (Homo sapiens, UniProt Q99558); assay: Inhibition of auto-phosphorylation of recombinant human NIK/MAP3K14 (AlphaScreen); type: biochemical; settings: GST-tagged NIK/MAP3K14 0.2 nM, 25 microM ATP, 1 h at 25° C.; averaged over all measurements on all batches; read-out: Alpha-Screen IC50
Recombinant Human NF-kappaB-inducing Kinase (NIK/MAP3K14), sequence (Q99558 whole entry): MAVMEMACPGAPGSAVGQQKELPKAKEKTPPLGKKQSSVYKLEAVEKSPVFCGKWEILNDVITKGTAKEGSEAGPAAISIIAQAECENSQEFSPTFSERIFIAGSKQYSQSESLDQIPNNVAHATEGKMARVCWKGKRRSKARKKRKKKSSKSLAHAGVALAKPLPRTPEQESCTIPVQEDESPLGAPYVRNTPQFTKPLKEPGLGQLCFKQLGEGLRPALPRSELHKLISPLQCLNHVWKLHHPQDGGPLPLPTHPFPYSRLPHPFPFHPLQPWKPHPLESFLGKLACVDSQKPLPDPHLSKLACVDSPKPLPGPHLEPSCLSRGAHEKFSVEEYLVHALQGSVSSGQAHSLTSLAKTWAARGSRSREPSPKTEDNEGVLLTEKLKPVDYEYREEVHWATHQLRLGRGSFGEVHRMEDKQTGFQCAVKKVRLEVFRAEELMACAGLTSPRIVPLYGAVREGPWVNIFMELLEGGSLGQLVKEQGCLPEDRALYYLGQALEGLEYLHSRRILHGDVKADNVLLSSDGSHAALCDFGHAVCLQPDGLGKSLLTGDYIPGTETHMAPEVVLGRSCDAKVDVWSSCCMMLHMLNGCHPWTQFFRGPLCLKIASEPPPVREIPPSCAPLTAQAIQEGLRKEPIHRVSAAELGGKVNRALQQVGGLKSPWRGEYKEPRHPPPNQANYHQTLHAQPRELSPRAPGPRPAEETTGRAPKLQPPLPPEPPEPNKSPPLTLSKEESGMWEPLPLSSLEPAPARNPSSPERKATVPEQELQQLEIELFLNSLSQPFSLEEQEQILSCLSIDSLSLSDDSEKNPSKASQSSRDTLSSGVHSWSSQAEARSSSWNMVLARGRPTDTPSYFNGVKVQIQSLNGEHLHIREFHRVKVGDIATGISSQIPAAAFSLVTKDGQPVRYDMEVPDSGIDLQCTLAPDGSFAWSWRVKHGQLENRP
Method: Inhibition of Auto-phosphorylation of Recombinant Human NF-kappaB-inducing Kinase (NIK/MAP3K14) Activity (AlphaScreen®)
NIK/MAP3K14 auto-phosphorylation activity was measured using the AlphaScreen® (αscreen) format (Perkin Elmer). All compounds tested were dissolved in dimethyl sulfoxide (DMSO) and further dilutions were made in assay buffer. Final DMSO concentration was 1% (v/v) in assays. Assay buffer was 50 mM Tris pH 7.5 containing 1 mM EGTA (ethylene glycol tetraacetic acid), 1 mM DTT (dithiothreitol), 0.1 mM Na3VO4, 5 mM MgCl2, 0.01% Tween® 20. Assays were carried out in 384 well Alphaplates (Perkin Elmer). Incubations consisted of compound, 25 microM Adenosine-5′-triphosphate (ATP), and 0.2 nM NIK/MAP3K14. Incubations were initiated by addition of GST-tagged NIK/MAP3K14 enzyme, carried out for 1 h at 25° C. and terminated by addition of stop buffer containing anti-phospho-IKK Ser176/180 antibody. Protein A Acceptor and Glutathione-Donor beads were added before reading using an EnVision® Multilabel Plate Reader (Perkin Elmer). Signal obtained in the wells containing blank samples was subtracted from all other wells and IC50's were determined by fitting a sigmoidal curve to % inhibition of control versus Log10 compound concentration.

[2] = system: P-IKKα levels in L363 cells; assay: Effect of compounds on P-IKKα levels in L363 cells; type: cell-based; settings: Homo sapiens, L-363; L363 cells with BAFF, 2 hr treatment, P-IKKα by sandwich immuno-assay (Mesoscale); averaged values; read-out: IKKα Cellular IC50
Method: Effect of Compounds on P-IKKα Levels in L363 Cells
All compounds tested were dissolved in DMSO and further dilutions were made in culture medium. Final DMSO concentration was 1% (v/v) in cell assays. The human L363 cells (ATCC) were cultured in RPMI 1640 medium supplemented with GlutaMax and 10% fetal calf serum (PAA). Cells were routinely maintained at densities of 0.2×10^6 cells per ml-1×10^6 cells per ml at 37° C. in a humidified 5% C02 atmosphere. Cells were passaged twice a week splitting back to obtain the low density. Cells were seeded in 96 well plates (Nunc 167008) at 2×10^6 per ml media in a volume of 75 μl per well plus 25 μl 1 μg/ml recombinant human B-cell activating factor (BAFF/BLyS/TNFSF13B). Seeded cells were incubated at 37° C. in a humidified 5% CO2 atmosphere for 24 hr. Drugs and/or solvents were added (20 μl) to a final volume of 120 μl. Following 2 hr treatment plates were removed from the incubator and cell lysis was achieved by the addition of 30 μl 5× lysis buffer followed by shaking on a plate shaker at 4° C. for 10 min. At the end of this incubation lysed cells were centrifuged at 800×g for 20 min at 4° C. and the lysate was assessed for P-IKKα levels by sandwich immuno-assay carried out in anti-rabbit antibody coated Mesoscale plates. Within an experiment, the results for each treatment were the mean of 2 replicate wells.
For initial screening purposes, compounds were tested using an 8 point dilution curve (serial 1:3 dilutions). For each experiment, controls (containing MG132 and BAFF but no test drug) and a blank incubation (containing MG132 and BAFF and 10 μM ADS 125117, a test concentration known to give full inhibition) were run in parallel. The blank incubation value was subtracted from all control and sample values. To determine the IC50 a sigmoidal curve was fitted to the plot of % inhibition of control P-IKKα levels versus Log10 compound concentration.

[3] = system: JJN-3 cells; assay: Antiproliferative activity on JJN-3 cells (CellTiter-Glo); type: cell-based; settings: Homo sapiens, 72 hr of treatment, averaged values
Method: (§1) Determination of Antiproliferative Activity on LP-1, L-363 and JJN-3 Cells
(§2) All compounds tested were dissolved in DMSO and further dilutions were made in culture medium. Final DMSO concentration was 0.3% (v/v) in cell proliferation assays.
(§3) Viability was assessed using CellTiter-Glo cell viability assay kit (Promega). The human LP-1, L-363 and JJN-3 cells (DSMZ) were cultured in RPMI 1640 medium supplemented with 2 mM L-glutamine, and 10% fetal calf serum (PAA). Cells were routinely kept as suspension cells at 37° C. in a humidified 5% C02 atmosphere. Cells were passaged at a seeding density of 0.2×10^6/ml twice a week. Cells were seeded in black tissue culture treated 96-well plates (Perkin Elmer). Densities used for plating ranged from 2,000 to 6,000 cells per well in a total volume of 75 μl medium. After twenty four hours, drugs and/or solvents were added (25 μl) to a final volume of 100 μl. Following 72 hr of treatment plates were removed from the incubator and allowed to equilibrate to room temperature for approx 10 min. 100 μl CellTiter-Glo reagent was added to each well that was then covered (Perkin Elmer Topseal) and shaken on plate shaker for 10 min. Luminescence was measured on a HTS Topcount (Perkin Elmer). Within an experiment, the results for each treatment were the mean of 2 replicate wells.
(§4) For initial screening purposes, compounds were tested using a 9 point dilution curve (serial 1:3 dilutions). For each experiment, controls (containing no drug) and a blank incubation (containing cells read at the time of compound addition) were run in parallel. The blank value was subtracted from all control and sample values. For each sample, the mean value for cell growth (in relative light units) was expressed as a percentage of the mean value for cell growth of the control.

[4] = system: L-363 cells; assay: Antiproliferative activity on L-363 cells (CellTiter-Glo); type: cell-based; settings: Homo sapiens, 72 hr of treatment, averaged values
Method: as §1, §2, §3, §4

[5] = system: LP-1 cells; assay: Antiproliferative activity on LP-1 cells (CellTiter-Glo); type: cell-based; settings: Homo sapiens, 72 hr of treatment, averaged values
Method: as §1, §2, §3, §4

Compound	IC50 [1] [nM]	IC50 [2] [nM]	EC50 [3] [nM]	EC50 [4] [nM]	EC50 [5] [nM]
[2H]C([2H])([2H])C(O)(C#Cc1cc2c(-c3nc(N)nc4ccsc34)cn(C3CCCN(CC)C3)c2cn1)C([2H])([2H])[2H] (centres unmarked) [Compound 12]	66	–	289	243	783
COCCCc1cn(-c2nc(N)nc3ccsc23)c2cc(C#CC(C)(C)O)ncc12 [Compound 6]	15	–	580	1040	3430
CN1CCC(c2cn(-c3nc(N)nc4ccsc34)c3cc(C#CC(C)(C)O)ncc23)CC1 [Compound 3]	140	–	540	258	3980
[2H]C([2H])([2H])C(O)(C#Cc1cc2c(-c3nc(N)nc4ccsc34)cn(CC3CCCN3CC)c2cn1)C([2H])([2H])[2H] (centres unmarked) [Compound 13]	58	–	60	36	75
CC(C)(O)C#Cc1cc2c(-c3nc(N)nc4ccsc34)cn(C3COC3)c2cn1 [Compound 7]	32	–	1060	696	> 30000
[2H]C([2H])([2H])C(O)(C#Cc1cc2c(-c3nc(N)nc4ccsc34)cn(C3CN(C4CC4)C3)c2cn1)C([2H])([2H])[2H] [Compound 10]	52	–	494	610	1480

Further compounds by falling IC50 [1], results first:

IC50 [1] [nM]	IC50 [2] [nM]	Compound	EC50 [3] [nM]	EC50 [4] [nM]	EC50 [5] [nM]
112	–	CC(O)(C#Cc1cc2c(-c3nc(N)nc4ccsc34)cn(C3CCN(C4CC4)CC3)c2cn1)C1CC1 (centres unmarked) [Compound 8]	16	4	38
38	–	[2H]C([2H])([2H])C(O)(C#Cc1cc2c(-c3nc(N)nc4ccsc34)cn(C3CCN(CC)C3)c2cn1)C([2H])([2H])[2H] (centres unmarked) [Compound 14]	145	122	655
26	–	CC(O)(C#Cc1cc2c(-c3nc(N)nc4ccsc34)cn(C3CN(C4CC4)C3)c2cn1)C1CC1 (single isomer, unassigned) [Compound 11]	652	461	918
26	–	CC(C)c1cn(-c2nc(N)nc3ccsc23)c2cc(C#CC(C)(C)O)ncc12 [Compound 4]	1740	1580	3130
20	–	[2H]C([2H])([2H])C(O)(C#Cc1cc2c(-c3nc(N)nc4ccsc34)cn(C3CCN(C4CC4)CC3)c2cn1)C([2H])([2H])[2H] [Compound 9]	24	7	85
19	64	COCCCn1cc(-c2nc(N)nc3ccsc23)c2cc(C#CC(C)(C)O)ncc21 [Compound 5]	299	395	1680
15	104	CC(C)(O)C#Cc1cc2c(ccn2-c2nc(N)nc3ccsc23)cn1 [Compound 1]	764	979	2220
9	339	CC(C)(O)C#Cc1cc2c(cn1)c(CCC(C)(C)O)cn2-c1nc(N)nc2ccsc12 [Compound 2]	1470	2800	10300
